Legend:
HAdV-19 [1] = assay: MTT-based antiviral assay, HAdV-19-infected MT-2 cells; format: cell-based, Human adenovirus type 19; settings: for EC50: Human mastadenovirus D, MT2, 120 h, HAdV-19, five days, MTT, mean ± 1 SD, read-out: EC50 (50% antiviral effective concentration)
Protocol: (§1) MT-2 cells and A549 cells were mixed with HAdV-19, 2× 10^5 cells/mL with 10^4 TCID50/mL and 1× 10^5 cells/mL with 3 × 10^3 TCID50/mL, respectively, in plate wells in the presence or absence of various concentrations of the compounds (MOI: 0.035 for MT-2 cells and 0.021 for A549). The plates were incubated for five days. At the end of the incubation period, CPE was determined using the MTT assay, as described previously.[11],[12] Thus, 25 µl of the MTT solution (7.5 mg/ml) in phosphate-buffered saline (Wako, Japan) was added to each well of the plate. Then, the plate was incubated at 37°C for 2 h. After incubation, 150 µl of medium was removed with care in order not to draw cells. To solubilize the formazan crystals and neutralize the viral infectivity, 100 μl of acidified isopropanol (4 ml concentrated HCl per 1 l of isopropanol) containing 10% (v/v) Triton X-100 was added to each well. Formazan crystals were completely solubilized by pipetting up and down, the absorbance at 560 nm of the wells was read by microplate reader (GloMax, Promega, Japan). […] The cytotoxicity of each compound was measured in parallel using the MTT assay. The 50% cytotoxicity concentration (CC50) was defined as the drug concentration that reduces cell viability by 50%.

HAdV-19 [2] = assay: MTT-based antiviral assay, HAdV-19-infected A549 cells; format: cell-based, Human adenovirus type 19; settings: for EC50: Human mastadenovirus D, 120 h, HAdV-19, five days, MTT, mean ± 1 SD, read-out: EC50 (50% antiviral effective concentration)
Protocol: as §1

A549 cells = assay: MTT cytotoxicity assay, A549 cells; format: cell-based, human; settings: at a concentration of 100 µM
Protocol: (§2) MT-2 cells and A549 cells were mixed with HAdV-19, 2× 10^5 cells/mL with 10^4 TCID50/mL and 1× 10^5 cells/mL with 3 × 10^3 TCID50/mL, respectively, in plate wells in the presence or absence of various concentrations of the compounds (MOI: 0.035 for MT-2 cells and 0.021 for A549). The plates were incubated for five days. At the end of the incubation period, CPE was determined using the MTT assay, as described previously.[11],[12] Thus, 25 µl of the MTT solution (7.5 mg/ml) in phosphate-buffered saline (Wako, Japan) was added to each well of the plate. Then, the plate was incubated at 37°C for 2 h. After incubation, 150 µl of medium was removed with care in order not to draw cells. To solubilize the formazan crystals and neutralize the viral infectivity, 100 μl of acidified isopropanol (4 ml concentrated HCl per 1 l of isopropanol) containing 10% (v/v) Triton X-100 was added to each well. Formazan crystals were completely solubilized by pipetting up and down, the absorbance at 560 nm of the wells was read by microplate reader (GloMax, Promega, Japan). The 50% antiviral effective concentration (EC50) was defined as the drug concentration that protects 50% of virus-infected cells from virus-induced cell damage and/or death.[12] The cytotoxicity of each compound was measured in parallel using the MTT assay. The 50% cytotoxicity concentration (CC50) was defined as the drug concentration that reduces cell viability by 50%. Data shown represent mean EC50 and CC50values (±1 standard deviation) derived from the results of two to four independent experiments conducted in duplicate.

[3] = MTT cytotoxicity assay, A549 cells; format: cell-based, human; settings: human, MTT, mean ± 1 SD, read-out: CC50 (50% cytotoxicity concentration)
Protocol: as §2

[4] = MTT cytotoxicity assay, MT-2 cells; format: cell-based, human; settings: human, MTT, mean ± 1 SD, read-out: CC50 (50% cytotoxicity concentration)
Protocol: as §2

MT-2 cells = assay: MTT cytotoxicity assay, MT-2 cells; format: cell-based, human; settings: at a concentration of 100 µM
Protocol: as §2

SMILES | SI (selectivity index, ratio of CC50 and EC50) (HAdV-19 [1]) | EC50 (HAdV-19 [1]) [µM] | SI (selectivity index, ratio of CC50 and EC50) (HAdV-19 [2]) | EC50 (HAdV-19 [2]) [µM] | tolerance by cells (A549 cells) | CC50 at 5 days [3] [µM] | CC50 at 5 days [4] [µM] | tolerance by cells (MT-2 cells) | antiviral activity against HAdV-19 (in words) (HAdV-19 [1]; MTT assay)
Nc1ccn(C[C@@H](CO)OCP(=O)(O)O)c(=O)n1 [CDV, (S)-1–(3-hydroxy-2-phosphonylmethoxypropyl)cytosine] | >1.6 | 62 ± 26 | >24 | 4.2 ± 1.1 | tolerated | > 100 | > 100 | tolerated | –
Cc1cn([C@H]2C[C@H](F)[C@@H](CO)O2)c(=O)[nH]c1=O [FdT, 3′-deoxy-3′-fluorothymidine] | – | 1.8 ± 0.2 | – | 0.03 ± 0.01 | – | 7.6 ± 4.2 | 36 ± 5 | – | –
Nc1nc(O)c2ncn(COC(CO)CO)c2n1 [GCV, ganciclovir] | >1.7 | 60 ± 7 | >1.9 | 54 ± 27 | tolerated | > 100 | > 100 | tolerated | –
NC(=O)c1ncn([C@@H]2O[C@H](CO)[C@@H](O)[C@H]2O)n1 [RBV, ribavirin] | – | > 18 | – | > 53 | – | 53 ± 21 | 18 ± 1 | – | little antiviral activity
Nc1ccn([C@H]2CC[C@@H](CO)O2)c(=O)n1 [ddC, 2′,3′-dideoxycytidine] | >38 | 2.6 ± 0.4 | >286 | 0.35 ± 0.04 | tolerated | > 100 | > 100 | tolerated | –

Reference: publication PMC7218274 (Antiviral Chemistry & Chemotherapy, 2020)
